From ChEMBL document CHEMBL4261619, “Sentulic acid isolated from Sandoricum koetjape Merr attenuates lipopolysaccharide and interferon gamma co-stimulated nitric oxide production in murine macrophage RAW264 cells” (Bioorg Med Chem Lett, 2018)
Calls of active or inactive are those of the source. The calls are words filed in the database; no cut-off is given here.

Columns and labels:
Assay type in all cases: cell-based
[1] = target: T1, Toll-like receptor 4 (Mus musculus) (UniProt Q9QUK6); test: Displacement of Alexa fluor 488-conjugated LPS from TLR4 in mouse RAW264.7 cells at 100 uM pretreated for 2 hrs followed by Alexa fluor 488-conjugated LPS addition and measured after 30 mins by Hoechst 33342 staining based assay relative to control
T1 sequence (whole entry): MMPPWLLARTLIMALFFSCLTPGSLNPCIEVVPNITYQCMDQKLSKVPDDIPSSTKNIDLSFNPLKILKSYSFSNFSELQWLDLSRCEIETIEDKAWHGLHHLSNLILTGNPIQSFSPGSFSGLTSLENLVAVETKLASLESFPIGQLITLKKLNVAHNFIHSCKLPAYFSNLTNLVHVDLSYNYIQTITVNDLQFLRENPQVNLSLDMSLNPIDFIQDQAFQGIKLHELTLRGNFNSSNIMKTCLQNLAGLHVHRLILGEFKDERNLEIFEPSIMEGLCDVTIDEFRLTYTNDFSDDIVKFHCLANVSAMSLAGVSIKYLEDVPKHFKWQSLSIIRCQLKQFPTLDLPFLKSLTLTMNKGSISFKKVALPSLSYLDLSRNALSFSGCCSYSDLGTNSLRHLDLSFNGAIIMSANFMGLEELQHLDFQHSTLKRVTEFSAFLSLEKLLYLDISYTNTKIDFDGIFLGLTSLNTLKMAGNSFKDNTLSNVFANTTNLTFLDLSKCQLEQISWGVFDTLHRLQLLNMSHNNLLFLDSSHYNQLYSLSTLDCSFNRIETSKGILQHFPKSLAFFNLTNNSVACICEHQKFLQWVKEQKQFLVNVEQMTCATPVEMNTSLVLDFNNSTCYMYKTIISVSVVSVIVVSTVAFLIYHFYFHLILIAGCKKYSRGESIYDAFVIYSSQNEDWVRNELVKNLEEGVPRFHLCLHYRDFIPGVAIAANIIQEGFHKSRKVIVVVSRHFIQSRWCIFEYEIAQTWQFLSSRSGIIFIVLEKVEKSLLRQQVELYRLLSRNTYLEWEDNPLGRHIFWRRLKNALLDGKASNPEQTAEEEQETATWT

[2] = target: T1, Toll-like receptor 4 (Mus musculus); test: Inhibition of LPS binding to TLR4 in IFNgamma-stimulated mouse RAW264.7 cells assessed as suppression of IFNgamma mRNA expression at 100 uM by qRT-PCR analysis
[3] = target: T1, Toll-like receptor 4 (Mus musculus); test: Inhibition of LPS binding to TLR4 in IFNgamma-stimulated mouse RAW264.7 cells assessed as effect on ratio of phosphorylated AKT to total AKT at 100 uM measured after 60 mins by Western blot analysis relative to beta-actin (reference value: 1.4)
[4] = target: T1, Toll-like receptor 4 (Mus musculus); test: Inhibition of LPS binding to TLR4 in IFNgamma-stimulated mouse RAW264.7 cells assessed as effect on ratio of phosphorylated JNK to total JNK at 100 uM measured after 30 mins by Western blot analysis relative to beta-actin (reference value: 2.3)
[5] = target: T1, Toll-like receptor 4 (Mus musculus); test: Inhibition of LPS binding to TLR4 in IFNgamma-stimulated mouse RAW264.7 cells assessed as effect on ratio of phosphorylated NFkappaB to total NFkappaB at 100 uM measured after 15 mins by Western blot analysis relative to beta-actin (reference value: 4.7)
[6] = target: T1, Toll-like receptor 4 (Mus musculus); test: Inhibition of LPS binding to TLR4 in IFNgamma-stimulated mouse RAW264.7 cells assessed as effect on ratio of phosphorylated ERK to total ERK at 100 uM measured after 120 mins by Western blot analysis relative to beta-actin (reference value: 3)
[7] = target: T1, Toll-like receptor 4 (Mus musculus); test: Inhibition of LPS binding to TLR4 in IFNgamma-stimulated mouse RAW264.7 cells assessed as effect on ratio of phosphorylated ERK to total ERK at 100 uM measured after 60 mins by Western blot analysis relative to beta-actin (reference value: 3)
[8] = target: T1, Toll-like receptor 4 (Mus musculus); test: Inhibition of LPS binding to TLR4 in IFNgamma-stimulated mouse RAW264.7 cells assessed as effect on ratio of phosphorylated p38 to total p38 at 100 uM measured after 15 mins by Western blot analysis relative to beta-actin (reference value: 4.9)
[9] = target: T1, Toll-like receptor 4 (Mus musculus); test: Inhibition of LPS binding to TLR4 in IFNgamma-stimulated mouse RAW264.7 cells assessed as effect on ratio of phosphorylated p38 to total p38 at 100 uM measured after 60 mins by Western blot analysis relative to beta-actin (reference value: 1.9)
[10] = tested on: RAW264.7; test: Inhibition of IFNgamma binding to IFNGR in LPS-stimulated mouse RAW264.7 cells assessed as effect on ratio of phosphorylated Stat1 to total Stat1 at 100 uM measured after 15 mins by Western blot analysis relative to beta-actin (reference value: 1.3)
[11] = target: T1, Toll-like receptor 4 (Mus musculus); test: Inhibition of LPS binding to TLR4 in IFNgamma-stimulated mouse RAW264.7 cells assessed as suppression of TNFalpha mRNA expression at 100 uM by qRT-PCR analysis
[12] = target: T1, Toll-like receptor 4 (Mus musculus); test: Inhibition of LPS binding to TLR4 in IFNgamma-stimulated mouse RAW264.7 cells assessed as effect on ratio of phosphorylated NFkappaB to total NFkappaB at 100 uM measured after 60 mins by Western blot analysis relative to beta-actin (reference value: 1)
[13] = target: T1, Toll-like receptor 4 (Mus musculus); test: Inhibition of LPS binding to TLR4 in IFNgamma-stimulated mouse RAW264.7 cells assessed as effect on ratio of phosphorylated AKT to total AKT at 100 uM measured after 120 mins by Western blot analysis relative to beta-actin (reference value: 1.4)
[14] = target: T1, Toll-like receptor 4 (Mus musculus); test: Inhibition of LPS binding to TLR4 in IFNgamma-stimulated mouse RAW264.7 cells assessed as suppression of iNOS mRNA expression at 100 uM by qRT-PCR analysis
[15] = target: T1, Toll-like receptor 4 (Mus musculus); test: Inhibition of LPS binding to TLR4 in IFNgamma-stimulated mouse RAW264.7 cells assessed as reduction in nitric oxide production pretreated for 2 hrs followed by LPS/IFNgamma stimulation and measured after 24 hrs
[16] = tested on: RAW264.7; test: Inhibition of IFNgamma binding to IFNGR in LPS-stimulated mouse RAW264.7 cells assessed as effect on ratio of phosphorylated Stat1 to total Stat1 at 100 uM measured after 60 mins by Western blot analysis relative to beta-actin (reference value: 4.1)
[17] = target: T1, Toll-like receptor 4 (Mus musculus); test: Inhibition of LPS binding to TLR4 in IFNgamma-stimulated mouse RAW264.7 cells assessed as reduction in COX2 expression at 100 uM by Western blot analysis
[18] = target: T1, Toll-like receptor 4 (Mus musculus); test: Inhibition of LPS binding to TLR4 in IFNgamma-stimulated mouse RAW264.7 cells assessed as effect on ratio of phosphorylated p38 to total p38 at 100 uM measured after 30 mins by Western blot analysis relative to beta-actin (reference value: 4.8)
[19] = target: T1, Toll-like receptor 4 (Mus musculus); test: Inhibition of LPS binding to TLR4 in IFNgamma-stimulated mouse RAW264.7 cells assessed as effect on ratio of phosphorylated TAK1 to total TAK1 at 100 uM measured after 15 mins by Western blot analysis relative to beta-actin (reference value: 1.3)

inhibition [1]: 43%
inhibition [2]: Active
fold change (FC) [3]: 1
fold change (FC) [4]: 1.5
fold change (FC) [5]: 2.9
fold change (FC) [6]: 2.2
fold change (FC) [7]: 2.2
fold change (FC) [8]: 4
fold change (FC) [9]: 2
inhibition [11]: Active
fold change (FC) [12]: 1
fold change (FC) [13]: 0.9
inhibition [14]: Active
inhibition [15]: Dose-dependent effect
inhibition [17]: inactive
fold change (FC) [18]: 4
fold change (FC) [19]: 1
Structure (SMILES): C=C(C)[C@@H]1CC[C@]2(C)[C@H](CC=C3[C@@H]4CC(C)(C)CC[C@]4(C)CC[C@]32C(=O)O)[C@@]1(C)CCC(=O)O
fold change (FC) [10]: 1.2
fold change (FC) [16]: 1.8
